# “Also recorded” adds a separate entry of the source.
# How the values were obtained:
# eIF4E cap-binding site = target: T1, eIF4E cap-binding site (Homo sapiens, UniProt P06730); test: Competitive fluorescence polarization, cap analogue binding assessment (FAM labelled m7GTP); settings: eIF4E 250 nM, labelled m7GTP 50 nM; FIG. 1B; listed as EE-02
# T1 construct: made in house; Plasmid and cells were provided by Cyclacel Ltd., Dundee
# Method: Apparent Kd values were determined by fitting the experimental data to the equations shown below:
# [formula] [L]st and [L]t denote labeled ligand and total unlabeled ligand input concentrations, respectively. Kd2 is the dissociation constant of the interaction between the unlabelled ligand and the protein. In all competitive types of experiments, it is assumed that [P]t>[L]st, otherwise considerable amounts of free labeled ligand would always be present and would interfere with measurements. Kd1 is the apparent Kd for the labeled peptide used in the respective experiment. […] Readings were carried out with a Envision Multi-label Reader (PerkinElmer). Experiments were carried out in PBS (2.7 mM KCl, 137 mM NaCl, 10 mM NaHPO4 and 2 mM KHPO4 (pH 7.4)), 3% DMSO (v/v) and 0.1% Tween 20 buffer. All titrations were carried out in triplicate. Curve-fitting was carried out using Prism 4.0 (GraphPad). […]
# From these initial results it was predicted the new peptide motif might interact with eIF4E either via a different binding pose at the eIF4G binding site, or at the cap-binding site or elsewhere on the protein. The binding site was initially delineated on eIF4E by using two types of competitive fluorescence polarization experiments, one of which utilised a FAM labelled cap-analogue and the other that used a FAM labelled eIF4G1 derived peptide (FIG. 1).
# eIF4E [1] = target: T2, eIF4E (Homo sapiens, UniProt P06730); test: Tryptophan quenching experiments; format: binding; settings: 1 μM eIF4E, 0.01-20 μM titrant, excitation 290 nm, emission 355 nm; FIG. 2
# T2 construct: made in house; Plasmid and cells were provided by Cyclacel Ltd., Dundee
# T2 sequence (P06730 whole entry): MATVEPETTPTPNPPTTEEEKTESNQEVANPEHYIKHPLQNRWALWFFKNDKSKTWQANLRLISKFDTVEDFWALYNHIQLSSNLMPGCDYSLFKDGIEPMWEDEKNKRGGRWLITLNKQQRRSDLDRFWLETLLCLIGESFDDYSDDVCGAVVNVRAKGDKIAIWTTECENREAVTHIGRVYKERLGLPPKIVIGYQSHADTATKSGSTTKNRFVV
# Method: Tryptophan Quenching Experiments
# Tryptophan quenching experiments were performed using an EnVision® multiplate reader with black matte 96-well plates. […] Concentrations tested ranged from 0.01-20 μM. Samples were excited with UV light at 290 nm to minimise contribution from tyrosine fluorescence. Tryptophan was measured at an emission wavelength of 355 nm.
# eIF4E [2] = target: T2, eIF4E; test: Fluorescence anisotropy direct titration of eIF4E against FAM labelled tracers; settings: 50 nM tracer, eIF4E titrated, 1:1 binding model; read-out: Kd for interaction of labelled tracer with eIF4E
# Text: Fluorescence Anisotropy Assays and Kd Determination.
# Both were used later for subsequent Kd determination in competition experiments.
# T1 sequence (P06730 whole entry): as above
Compound,displacement of fluorescently labelled m7GTP from eIF4E (eIF4E cap-binding site),tryptophan quenching of eIF4E (eIF4E [1]),Kd (eIF4E [2])
CSCC[C@@H]1NC(=O)[C@H](CCC(=O)O)NC(=O)[C@@H](NC(=O)[C@H](C)N)CSSC[C@@H](C(=O)NCC(N)=O)NC(=O)[C@H](CC(=O)O)NC(=O)[C@H](CCC(N)=O)NC(=O)[C@H](Cc2ccccc2)NC(=O)[C@H](Cc2ccccc2)NC(=O)CNC1=O [EE-2],most potent peptide out of the set identified; also recorded: can displace fluorescently labelled m7GTP,significantly different profile to m7GTP/m7GDP,
m^7GTP-6-FAM,,,149 nM
